Test results reported in patent US9492460B2, “Carbazole compounds useful as bromodomain inhibitors” (Bristol-Myers Squibb Company, priority 2013, dated 2016).

Each compound was assayed against T1, bromodomain BRD4 (44-168), BRD4 (333-460), and BRD4 (1-477 or 44-460) (Homo sapiens, UniProt O60885) (assay: Time Resolved Fluorescence Resonance Energy Transfer (TR-FRET) binding assay). Details: one of the FRET assays described.
T1 construct: BRD4(44-168), BRD4(333-460), BRD4(44-460), BRD4(1-477), O60885-1; fused on or other part: N-terminal BirA biotinylation motif, biotinylated; The TVMV-cleavable His6 tag is removed, except in some BRD4(44-460) runs detected with anti-His terbium cryptate

| Compound | IC50 |
| --- | --- |
| Cc1noc(C)c1-c1cc(C(N)=O)c2c3ccc(C(C)(C)O)cc3n(C(c3ccccc3)C3CCOCC3)c2c1 (single isomer, unassigned) [Example 198] | < 50 nM |
| Cc1noc(C)c1-c1cc(C(N)=O)c2c3cc(C(=O)N4CC(C)OC(C)C4)ccc3n(Cc3ccc(F)cc3)c2c1 (centres unmarked) [Example 32] | < 50 nM |
| CNC(=O)c1cc(-c2c(C)noc2C)cc2c1c1cc(C(=O)N3CC(F)C3)ccc1n2Cc1ccc(F)cc1F [Example 106] | < 500 nM |
| Cc1noc(C)c1-c1cc(C(N)=O)c2c3cc(C(=O)N4CCC(F)C4)ccc3n(Cc3ccc(Cl)cc3)c2c1 (centres unmarked) [Example 80] | < 50 nM |
| Cc1noc(C)c1-c1ccc2c3cc(C(=O)N4CC(C)OC(C)C4)ccc3n(Cc3ccccc3F)c2c1 (centres unmarked) [Example 16] | < 7500 nM |
| CNC(=O)c1cc(-c2c(C)noc2C)cc2c1c1cc(C(=O)N3CC(F)C3)ccc1n2Cc1ccc(Cl)cc1 [Example 102, 9-(4-chlorobenzyl)-2-(3,5-dimethylisoxazol-4-yl)-6-(3-fluoroazetidine-1-carbonyl)-N-methyl-9H-carbazole-4-carboxamide] | < 50 nM |
| Cc1nocc1-c1cc(C(N)=O)c2c3cc(C(=O)N4CCOCC4)ccc3n(Cc3ccc(F)cc3)c2c1 [Example 122, 9-(4-fluorobenzyl)-2-(3-methyl-4-isoxazolyl)-6-(4-morpholinylcarbonyl)-9H-carbazole-4-carboxamide] | < 50 nM |
| COc1ccc2c(c1)c1c(C(N)=O)cc(-c3c(C)noc3C)cc1n2C(C)c1ccccc1 (centres unmarked) [Example 176, 2-(3,5-dimethyl-4-isoxazolyl)-6-methoxy-9-(1-phenylethyl)-9H-carbazole-4-carboxamide] | < 50 nM |
| CNc1ccc2c(c1)c1c(C(N)=O)cc(-c3c(C)noc3C)cc1n2Cc1ccccc1 [Example 130, 9-Benzyl-2-(3,5-dimethyl-4-isoxazolyl)-6-(methylamino)-9H-carbazole-4-carboxamide] | < 50 nM |
| Cc1noc(C)c1-c1cc(C(N)=O)c2c3cc(C(=O)N4CC[C@H](F)C4)ccc3n(Cc3ccccc3)c2c1 [Example 59] | < 50 nM |
| Cc1noc(C)c1-c1cc(C(N)=O)c2c3ccc(C(C)(C)O)c(F)c3n(C(CCC(F)(F)F)c3ccccc3)c2c1 (single isomer, unassigned) [Example 231, 2-(dimethyl-1,2-oxazol-4-yl)-8-fluoro-7-(2-hydroxypropan-2-yl)-9-[4,4,4-trifluoro-1-phenylbutyl]-9H-carbazole-4-carboxamide] | < 50 nM |
| Cc1noc(C)c1-c1cc(C(N)=O)c2c3cc(C(=O)N4CC(F)C4)ccc3n(Cc3ccc(Cl)cc3F)c2c1 [Example 87] | < 50 nM |
| Cc1noc(C)c1-c1cc(C#N)c2c3cc(C(=O)N4CC(F)C4)ccc3n(Cc3cccc(F)c3)c2c1 [Example 121, 2-(3,5-dimethyl-4-isoxazolyl)-6-((3-fluoro-1-azetidinyl)carbonyl)-9-(3-fluorobenzyl)-9H-carbazole-4-carbonitrile] | < 500 nM |
| Cc1noc(C)c1-c1cc(C(N)=O)c2c3cc(C(=O)N4CCCOCC4)ccc3n(Cc3ccccc3)c2c1 [Example 56] | < 50 nM |
| Cc1noc(C)c1-c1cc(C(N)=O)c2c3cc(N4CCCOC4=O)ccc3n(Cc3ccc(Cl)cc3)c2c1 [Example 157, 9-(4-chlorobenzyl)-2-(3,5-dimethyl-4-isoxazolyl)-6-(2-oxo-1,3-oxazinan-3-yl)-9H-carbazole-4-carboxamide] | < 50 nM |
| Cc1noc(C)c1-c1cc(C(N)=O)c2c3cc(C(=O)N4CC(F)C4)ccc3n(C(C)c3cccc(C(F)(F)F)c3)c2c1 (centres unmarked) [Example 88] | < 50 nM |
| CC(=O)N(CCF)c1ccc2c(c1)c1c(C(N)=O)cc(-c3c(C)noc3C)cc1n2Cc1ccccc1 [Example 134, 6-(acetyl(2-fluoroethyl)amino)-9-benzyl-2-(3,5-dimethyl-4-isoxazolyl)-9H-carbazole-4-carboxamide] | < 50 nM |
| Cc1noc(C)c1-c1cc(C(N)=O)c2c3cc(C(=O)N4CCC4C)ccc3n(Cc3ccccc3)c2c1 (centres unmarked) [Example 54] | < 50 nM |

Results, then the compound that gave them:

| IC50 | Compound |
| --- | --- |
| < 50 nM | Cc1noc(C)c1-c1cc(C(N)=O)c2c3cc(NCCO)ccc3n(Cc3ccccc3)c2c1 [Example 137, 9-benzyl-2-(3,5-dimethyl-4-isoxazolyl)-6-((2-hydroxyethyl)amino)-9H-carbazole-4-carboxamide] |
| < 500 nM | Cc1noc(C)c1-c1cc(C(N)=O)c2c3cc(C(=O)N4CC(C)OC(C)C4)ccc3n(Cc3ccncn3)c2c1 (centres unmarked) [Example 38] |
| < 50 nM | COC(=O)c1ccc2c3c(C(N)=O)cc(-c4c(C)noc4C)cc3n(Cc3ccccc3)c2c1 [Example 183, Methyl 9-benzyl-5-carbamoyl-7-(3,5-dimethyl-4-isoxazolyl)-9H-carbazole-2-carboxylate] |
| < 500 nM | Cc1noc(C)c1-c1cc(C(N)=O)c2c3ccc(C(=O)c4cccc(F)c4)cc3n(Cc3ccccc3)c2c1 [Example 190, 9-Benzyl-2-(3,5-dimethyl-4-isoxazolyl)-7-(3-fluorobenzoyl)-9H-carbazole-4-carboxamide] |
| < 500 nM | Cc1noc(C)c1-c1cc(C(N)=O)c2c3cc(C(=O)N4C[C@@H](C)O[C@@H](C)C4)ccc3n(C(=O)c3ccccc3)c2c1 [Example 46, 9-benzoyl-2-(3,5-dimethylisoxazol-4-yl)-6-(cis-2,6-dimethylmorpholine-4-carbonyl)-9H-carbazole-4-carboxamide] |
| < 50 nM | Cc1noc(C)c1-c1cc(C(N)=O)c2c3cc(C(=O)N4CC(C)OC(C)C4)ccc3n(Cc3cccc(Cl)c3)c2c1 (centres unmarked) [Example 34] |
| < 500 nM | Cc1noc(C)c1-c1ccc2c3cc(C(=O)N4CCOCC4)ccc3n(CC3CC3)c2c1 [Example 22, 9-(cyclopropylmethyl)-2-(3,5-dimethyl-4-isoxazolyl)-6-(4-morpholinylcarbonyl)-9H-carbazole] |
| < 50 nM | Cc1noc(C)c1-c1cc(C(N)=O)c2c3cc(C(=O)N4CC(C)OC(C)C4)ccc3n(C(C)c3ccccc3)c2c1 (centres unmarked) [Example 39] |
| < 50 nM | CNC(=O)c1cc(-c2c(C)noc2C)cc2c1c1cc(NC)ccc1n2Cc1ccccc1 [Example 133, 9-benzyl-2-(3,5-dimethyl-4-isoxazolyl)-N-methyl-6-(methylamino)-9H-carbazole-4-carboxamide] |
| < 500 nM | CNC(=O)c1cc(-c2c(C)noc2C)cc2c1c1cc(C(=O)N3CC(F)(F)C3)ccc1n2Cc1ccc(Cl)cc1 [Example 100, 9-(4-chlorobenzyl)-6-(3,3-difluoroazetidine-1-carbonyl)-2-(3,5-dimethylisoxazol-4-yl)-N-methyl-9H-carbazole-4-carboxamide] |
| < 500 nM | Cc1noc(C)c1-c1ccc2c3cc(C(=O)N4CC(C)OC(C)C4)ccc3n(Cc3ccccc3Cl)c2c1 (centres unmarked) [Example 11] |
| < 50 nM | Cc1noc(C)c1-c1cc(C(N)=O)c2c3cc(C(=O)N4C(C)(C)CC(O)CC4(C)C)ccc3n(Cc3ccccc3)c2c1 [Example 63] |
| < 50 nM | Cc1noc(C)c1-c1cc(C(N)=O)c2c3cc(C(=O)N4CCC4)ccc3n(Cc3ccccc3)c2c1 [Example 71] |
| < 50 nM | CCCNC(=O)c1cc(-c2c(C)noc2C)cc2c1c1cc(C(=O)N3CC(F)C3)ccc1n2Cc1ccc(F)cc1 [Example 124, 2-(3,5-dimethyl-4-isoxazolyl)-6-((3-fluoro-1-azetidinyl)carbonyl)-9-(4-fluorobenzyl)-N-propyl-9H-carbazole-4-carboxamide] |
| < 50 nM | Cc1noc(C)c1-c1cc(C(N)=O)c2c3cc(C(=O)N4CC(F)C4)ccc3n(C(C)c3ccccc3)c2c1 (centres unmarked) [Example 85, 2-(3,5-dimethyl-4-isoxazolyl)-6-((3-fluoro-1-azetidinyl)carbonyl)-9-(1-phenylethyl)-9H-carbazole-4-carboxamide] |
| < 50 nM | Cc1noc(C)c1-c1cc(C(N)=O)c2c3cc(O)ccc3n(Cc3ccccc3)c2c1 [Example 178, 9-benzyl-2-(3,5-dimethyl-4-isoxazolyl)-6-hydroxy-9H-carbazole-4-carboxamide] |
| < 500 nM | Cc1noc(C)c1-c1ccc2c3cc(C(=O)N4CC(C)OC(C)C4)ccc3n(CC3CC3)c2c1 (centres unmarked) [Example 5] |
| < 500 nM | Cc1noc(C)c1-c1ccc2c3cc(C(=O)N4CC(C)OC(C)C4)ccc3n(Cc3cccc(F)c3)c2c1 (centres unmarked) [Example 17] |
| < 50 nM | Cc1noc(C)c1-c1cc(C(N)=O)c2c3cc(NCC#N)ccc3n(Cc3ccccc3)c2c1 [Example 138, 9-benzyl-6-((cyanomethyl)amino)-2-(3,5-dimethyl-4-isoxazolyl)-9H-carbazole-4-carboxamide] |
| < 50 nM | Cc1noc(C)c1-c1cc(C(N)=O)c2c3ccc(C(C)(C)O)c(F)c3n(C(c3ccccc3)C3CCC(F)(F)CC3)c2c1 (single isomer, unassigned) [Example 226, 9-[(4,4-difluorocyclohexyl)(phenyl)methyl]-2-(dimethyl-1,2-oxazol-4-yl)-8-fluoro-7-(2-hydroxypropan-2-yl)-9H-carbazole-4-carboxamide] |
| < 50 nM | Cc1noc(C)c1-c1cc(C(N)=O)c2c3cc(C(=O)N4CC(C)OC(C)C4)ccc3n(Cc3ccc(Cl)cc3)c2c1 (centres unmarked) [Example 35] |
| < 50 nM | CNC(=O)c1cc(-c2c(C)noc2C)cc2c1c1cc(C(=O)N3CC(F)C3)ccc1n2Cc1cccc(F)c1F [Example 107] |
| < 50 nM | CNC(=O)c1cc(-c2c(C)noc2C)cc2c1c1cc(C(=O)N3CC(F)C3)ccc1n2Cc1ccccn1 [Example 116, 2-(3,5-dimethylisoxazol-4-yl)-6-(3-fluoroazetidine-1-carbonyl)-N-methyl-9-(pyridin-2-ylmethyl)-9H-carbazole-4-carboxamide] |
| < 50 nM | CCC1CCN(C(=O)c2ccc3c(c2)c2c(C(N)=O)cc(-c4c(C)noc4C)cc2n3Cc2ccccc2)CC1 [Example 50] |
| < 50 nM | Cc1noc(C)c1-c1cc(C(N)=O)c2c3cc(C(=O)N4CCO[C@@H](C)C4)ccc3n(Cc3ccccc3)c2c1 [Example 57] |
| < 50 nM | Cc1noc(C)c1-c1cc(C(N)=O)c2c3cc(C(=O)N4CCCC4)ccc3n(Cc3ccccc3)c2c1 [Example 66] |
